In US20050176149A1, “Process for the reversible functional inactivation of the mismatch repair system” (priority 2002, published 2005):
Entries after “also recorded” stand apart in the source; their conditions may differ.

Assays:
MutL protein = target: T1, MutL protein (Escherichia coli, UniProt P23367); assay: identification of the mismatch-repair system component saturated or inhibited by 2-AP (complementation with mutS^+ or mutL^+ plasmids); type: cell-based, E. coli; settings: 2-AP 300 mg/ml (so in the source); plasmids carrying mutS^+ or mutL^+
T1 construct: endogenous in cells; host or cells: E. coli K12 AB1157 derivatives (MX4, MX5); In MX5 (mutL218::Tn10), MutL comes from plasmid pMQ339 (mutL+)
T1 sequence (P23367 whole entry): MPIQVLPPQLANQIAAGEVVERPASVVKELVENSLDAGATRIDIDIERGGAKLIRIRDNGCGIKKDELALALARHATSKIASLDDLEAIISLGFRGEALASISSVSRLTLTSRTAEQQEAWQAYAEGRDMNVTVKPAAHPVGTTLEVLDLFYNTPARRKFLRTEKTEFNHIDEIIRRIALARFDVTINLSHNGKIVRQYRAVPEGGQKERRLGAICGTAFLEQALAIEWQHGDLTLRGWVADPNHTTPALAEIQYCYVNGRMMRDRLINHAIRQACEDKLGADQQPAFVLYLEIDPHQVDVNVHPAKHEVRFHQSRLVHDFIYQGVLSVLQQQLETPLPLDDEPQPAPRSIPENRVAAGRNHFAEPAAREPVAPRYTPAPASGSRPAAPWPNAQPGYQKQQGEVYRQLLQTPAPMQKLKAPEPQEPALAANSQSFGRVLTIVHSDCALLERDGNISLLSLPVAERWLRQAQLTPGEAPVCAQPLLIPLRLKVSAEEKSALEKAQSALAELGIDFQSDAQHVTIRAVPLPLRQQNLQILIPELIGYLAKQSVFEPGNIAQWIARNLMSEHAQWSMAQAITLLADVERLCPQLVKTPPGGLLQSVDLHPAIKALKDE
Method: FIG. 2: Identification of the mismatch-repair system component, which is saturated or inhibited with 2-aminopurine (2-AP) treatment. Recipient E. coli strains were either […] (A, B) or mutL^− (C, D). The mismatch repair deficiency was complemented with plasmids carrying mutS^+ (A, B) or mutL^+ genes (C, D). The dose of 2-AP used in these experiments was always 300 mg/ml. The recombination frequencies for the selected marker (Thr^+) are expressed per Hfr donor after subtracting unmated revertants. Each number represents the mean (± standard error) of at least three independent experiments.
Plasmids carrying mutS^+ or mutL^+ genes were indroduced by electrotransformation (using BIO RAD micro pulser apparatus) in MX4 and MX5 strains, respectively.
(§1) The conjugation experiments have been performed under the previously described conditions (Rayssiguier et al., 1989). The overnight cultures of donor strains (2-4×10^9 cells/ml) comprising the DNA sequence to be introduced and recipient strains comprising the autologous DNA sequences were diluted 50-fold into fresh LB medium, with or without 2-aminopurine (Sigma), and grown with gentle shaking (about 150 rpm) in order to obtain 2-4×10^8 cells/ml. In order to obtain the required concentration of cells, about 3 hours of incubation is required. […] Recombinants were scored after incubation of 48 hours at 37° C.

[1] = test system: donor and recipient strains; assay: growth of donor and recipient strains in LB medium with 2-AP; type: cell-based, E. coli; settings: 37° C., compared to growth without 2-AP (about 3 hours)
Method: The conjugation experiments have been performed under the previously described conditions (Rayssiguier et al., 1989). The overnight cultures of donor strains (2-4×10^9 cells/ml) comprising the DNA sequence to be introduced and recipient strains comprising the autologous DNA sequences were diluted 50-fold into fresh LB medium, with or without 2-aminopurine (Sigma), and grown with gentle shaking (about 150 rpm) in order to obtain 2-4×10^8 cells/ml. In order to obtain the required concentration of cells, about 3 hours of incubation is required. When cells were treated with 2-AP, the growth was slightly slower (the incubation was about 30 minutes longer) compared to the growth without 2-AP. The 2-AP treatment of the donor and recipient strains before mating is preferred as 2-AP must be incorporated in the DNA during replication in order to saturate mismatch repair. The doses of 2-AP tested were: 25 μg/ml, 50 μg/ml, 75 μg/ml, 100 μg/ml, 300 μg/ml and 600 μg/ml. The effect of 2-AP treatment was already significant when 50 μg/ml of 2-AP was used. […] Mating mixtures were prepared by mixing together Hfr and F^− bacteria in a 1:1 ratio. This mixture was filtered through a sterile 0.45-μm-pore size nitrocellulose filter (2.5 cm diameter), using vacuum filtration equipment (MILLIPORE). […] Recombinants were scored after incubation of 48 hours at 37° C.

[2] = test system: intraspecies E. coli Hfr×E. coli F^− conjugational recombination; assay: intraspecies E. coli Hfr×E. coli F^− conjugational recombination (Thr^+ recombinants per Hfr donor); type: cell-based; settings: mutS^+ (wildtype) or mutS^− background
Excerpt: (§2) FIG. 1: Influence of 2-aminopurine (2-AP) on the efficiency of intraspecies E. coli Hfr×E. coli F^− and interspecies S. typhimurium Hfr×E. coli F^− conjugational recombination. Recipient E. coli strains were either mutS^+ (A, C) or mutS^− (B, D). The recombination frequencies for the selected marker (Thr^+) are expressed per Hfr donor after subtracting unmated revertants. Each number represents the mean (± standard error) of at least three independent experiments.
as §1, with “required. When cells were treated with 2-AP, the growth was slightly slower (the incubation was about 30 minutes longer) compared to the growth without 2-AP. The 2-AP treatment of the donor and recipient strains before mating is preferred as 2-AP must be incorporated in the DNA during replication in order to saturate mismatch repair.” for “required.”

[3] = test system: interspecies S. typhimurium Hfr×E. coli F^− conjugational recombination; assay: interspecies S. typhimurium Hfr×E. coli F^− conjugational recombination (Thr^+ recombinants per Hfr donor); type: cell-based
Excerpt: as §2
The conjugation experiments have been performed under the previously described conditions (Rayssiguier et al., 1989). The overnight cultures of donor strains (2-4×10^9 cells/ml) comprising the DNA sequence to be introduced and recipient strains comprising the autologous DNA sequences were diluted 50-fold into fresh LB medium, with or without 2-aminopurine (Sigma), and grown with gentle shaking (about 150 rpm) in order to obtain 2-4×10^8 cells/ml. In order to obtain the required concentration of cells, about 3 hours of incubation is required. When cells were treated with 2-AP, the growth was slightly slower (the incubation was about 30 minutes longer) compared to the growth without 2-AP. The 2-AP treatment of the donor and recipient strains before mating is preferred as 2-AP must be incorporated in the DNA during replication in order to saturate mismatch repair. The doses of 2-AP tested were: 25 μg/ml, 50 μg/ml, 75 μg/ml, 100 μg/ml, 300 μg/ml and 600 μg/ml. The effect of 2-AP treatment was already significant when 50 μg/ml of 2-AP was used. […] Mating mixtures were prepared by mixing together Hfr and F^− bacteria in a 1:1 ratio. This mixture was filtered through a sterile 0.45-μm-pore size nitrocellulose filter (2.5 cm diameter), using vacuum filtration equipment (MILLIPORE). The filters with mating mixtures i.e. mixtures with cells comprising autologous and introduced nucleotide sequences were incubated on fresh LB agar plate (with or without 2-aminopurine) prewarmed at 37° C. […] For this purpose, the M9 medium [supplemented with arginine, histidine, leucine, proline and tryptophane (100 μg/ml each), thiamine (30 μg/ml), glucose (0.4%), and nalidixic acid (40 μg/ml) to counter-select the Hfr donor cells] was used. Threonine was not added to the media in order to select Thr^+ recombinants. Recombinants were scored after incubation of 48 hours at 37° C.
The recombination between these two bacterial species, which have about 16% divergence in their genomic sequences, is very low (10^−8-10^−7; FIG. 1A) compared to intraspecies recombination (about 10^−1; FIG. 1C). Inactivation of the mutS or mutL gene in recipient cells according to the present invention using 2-AP increases about 10^3-10^4-fold the frequency of interspecies recombination (FIG. 1B, FIG. 2A and 2B).

## Nc1ncc2[nH]cnc2n1 [2-AP, 2-aminopurine]
MutL protein
  component of the MRS titrated or inactivated by the 2-AP treatment: MutL protein
[1]
  additional incubation time needed to reach 2-4×10^8 cells/ml (slower growth) with 2-AP: about 30 minutes
[2]
  effect of 2-AP on frequency of intraspecies recombination: not considerably increased; also recorded: not modified
[3]; doses tested 25-600 μg/ml
  2-AP dose at which the effect on recombination was already significant: 50 µg/mL
[3]; doses tested 25-600 μg/ml, further increases did not increase recombination efficiency further
  2-AP dose of maximal effect on recombination efficiency: 100 µg/mL
[3]; mutS^− recipient (FIG. 1B) compared with wildtype (FIG. 1A)
  2-AP effect on interspecies recombination in mutS^− recipient background: not as pronounced as in a wildtype background
[3]; wild-type recipient cells, in particular at and above 75 μg/ml
  2-AP concentration range in which an increase of recombination frequency is seen: 50 to 600 µg/mL
